Measurements as given in EPA's ToxRefDB 2.

Tests used:
rat [1] = details: Subchronic oral toxicity in rodents, sprague dawley, Gavage/Intubation, dose end: 94 day
dog [2] = details: Combined chronic toxicity/carcinogenicity, beagle, Oral, Feed, dose end: 104 week
dog [3] = details: Chronic toxicity, beagle, Oral, Feed, dose end: 104 week
rat [4] = details: Multigenerational reproductive toxicity study, sprague dawley, Oral, Feed, dose end: 2 generation
rat [5] = details: Combined chronic toxicity/carcinogenicity, sprague dawley, Oral, Feed, dose end: 104 week
mouse = details: Carcinogenicity, swiss albino, Oral, Feed, dose end: 78 week
dog [6] = details: Chronic toxicity; beagle; Oral; Feed; dose end: 52 week; group: systemic; systemic / in life observation / body weight / body weight + systemic / organ weight / spleen / absolute + systemic / organ weight / spleen…
rat [7] = details: Prenatal developmental toxicity study, sprague dawley, Oral, Gavage/Intubation, dose end: 19 GD
rabbit = details: Prenatal developmental toxicity study; new zealand white; Oral; Gavage/Intubation; dose end: 19 GD; group: maternal; reproductive / reproductive performance / postimplantation loss / postimplantation loss + reproductive / reproductive performance / …
[8] = group: cholinesterase, cholinesterase / cholinesterase / cholinesterase / plasma cholinesterase (che)
[9] = group: cholinesterase, cholinesterase / cholinesterase / cholinesterase / plasma cholinesterase (che) + cholinesterase / cholinesterase / cholinesterase / brain …
[10] = group: systemic, systemic / organ weight / liver / relative to body weight + systemic / organ weight / ovary / absolute + systemic / organ weight / ovary / …
[11] = group: systemic, systemic / pathology microscopic / intestine small / hypertrophy + systemic / in life observation / clinical signs / soft stools + systemic…
[12] = group: systemic, systemic / pathology microscopic / intestine small / hypertrophy + systemic / pathology microscopic / stomach / hypertrophy + systemic / …
[13] = group: offspring, systemic / in life observation / body weight / offspring (pup) weight
[14] = group: offspring, systemic / in life observation / body weight / offspring (pup) weight + developmental / offspring survival late / viability index / …
[15] = group: parental, systemic / in life observation / body weight / body weight + systemic / in life observation / food consumption / food consumption + systemic…
[16] = group: cholinesterase, cholinesterase / cholinesterase / cholinesterase / erythrocyte cholinesterase (che) + cholinesterase / cholinesterase / cholinesterase / …
[17] = group: systemic, systemic / clinical chemistry / alkaline phosphatase (alp/alk) / alkaline phosphatase (alp/alk) + systemic / in life observation / body …
[18] = group: systemic, systemic / in life observation / body weight / body weight + systemic / in life observation / body weight / body weight gain + systemic / in…
[19] = group: developmental, systemic / in life observation / body weight / fetal weight
[20] = group: maternal, systemic / in life observation / mortality / mortality + systemic / pathology microscopic / liver / hepatitis + systemic / pathology …

With `O=P(O)(O)CCCl` [Ethephon] the LEL (rat [1]; [8]) was 50 mg/kg/day, the NEL (rat [1]; [8]) was under 50 mg/kg/day and the LOAEL (rat [1]; [9]) was over 200 mg/kg/day. For the same molecule, the NOAEL (rat [1]; [9]) was at least 200 mg/kg/day, the LEL (rat [1]; [10]) was 200 mg/kg/day and the LOAEL (rat [1]; [10]) was 200 mg/kg/day. It also gave an NEL (rat [1]; [10]) of 100 mg/kg/day, an NOAEL (rat [1]; [10]) of 100 mg/kg/day and an LEL (dog [2]; [8]) of 0.75 mg/kg/day. For the same molecule, the LOAEL (dog [2]; [8]) was 0.75 mg/kg/day, the NEL (dog [2]; [8]) was under 0.75 mg/kg/day and the NOAEL (dog [2]; [8]) was under 0.75 mg/kg/day. For the same molecule, the LEL (dog [2]; [11]) was 7.5 mg/kg/day, the LOAEL (dog [2]; [11]) was over 37.5 mg/kg/day and the NEL (dog [2]; [11]) was 0.75 mg/kg/day. It also gave an NOAEL (dog [2]; [11]) of at least 37.5 mg/kg/day, an LOAEL (dog [3]; group: cholinesterase, cholinesterase / cholinesterase / cholinesterase / erythrocyte cholinesterase (che)) of 7.5 mg/kg/day and an LEL (dog [3]; [8]) of 0.75 mg/kg/day. It also gave an NEL (dog [3]; [8]) of under 0.75 mg/kg/day, an NOAEL (dog [3]; group: cholinesterase, cholinesterase / cholinesterase / cholinesterase / plasma cholinesterase (che) + cholinesterase / cholinesterase / cholinesterase / …) of 0.75 mg/kg/day and an LEL (dog [3]; group: systemic, systemic / pathology microscopic / intestine small / hypertrophy + systemic / pathology microscopic / stomach / hypertrophy) of 7.5 mg/kg/day. For the same molecule, the LOAEL (dog [3]; [12]) was over 75 mg/kg/day, the NEL (dog [3]; [12]) was 0.75 mg/kg/day and the NOAEL (dog [3]; [12]) was at least 75 mg/kg/day. For the same molecule, the LEL (rat [4]; [13]) was 198 mg/kg/day, the LOAEL (rat [4]; [13]) was 198 mg/kg/day and the NEL (rat [4]; [14]) was 19.8 mg/kg/day. The NOAEL (rat [4]; [14]) was 19.8 mg/kg/day, the LEL (rat [4]; [15]) was 245 mg/kg/day and the LOAEL (rat [4]; [15]) was 245 mg/kg/day. It also gave an NEL (rat [4]; [15]) of 23.7 mg/kg/day, an NOAEL (rat [4]; [15]) of 23.7 mg/kg/day and an LEL (rat [5]; [16]) of 150 mg/kg/day. For the same molecule, the LOAEL (rat [5]; [16]) was 150 mg/kg/day, the NEL (rat [5]; [16]) was 15 mg/kg/day and the NOAEL (rat [5]; [16]) was 15 mg/kg/day. It also gave an LEL (rat [5]; [17]) of 15 mg/kg/day, an LOAEL (rat [5]; [17]) of over 150 mg/kg/day and an NEL (rat [5]; [17]) of 1.5 mg/kg/day. It also gave an NOAEL (rat [5]; [17]) of at least 150 mg/kg/day, an LEL (mouse; [16]) of 156 mg/kg/day and an LOAEL (mouse; [16]) of over 7750 mg/kg/day. It also gave an NEL (mouse; [16]) of 15.5 mg/kg/day, an NOAEL (mouse; [16]) of at least 7750 mg/kg/day and an LOAEL (mouse; group: systemic, systemic / in life observation / body weight / body weight + systemic / in life observation / body weight / body weight gain) of 1630 mg/kg/day. The NEL (mouse; [18]) was 156 mg/kg/day, the NOAEL (mouse; [18]) was 156 mg/kg/day and the LEL (mouse; group: systemic, systemic / in life observation / body weight / body weight + systemic / in life observation / body weight / body weight gain + systemic / …) was 1630 mg/kg/day. For the same molecule, the LEL (dog [6]) was 52.1 mg/kg/day, the LOAEL (dog [6]) was 52.1 mg/kg/day and the NEL (dog [6]) was 28.5 mg/kg/day. It also gave an NOAEL (dog [6]) of 28.5 mg/kg/day, an LEL (rat [7]; [19]) of 1800 mg/kg/day and an LOAEL (rat [7]; [19]) of 1800 mg/kg/day. For the same molecule, the NEL (rat [7]; [19]) was 600 mg/kg/day, the NOAEL (rat [7]; [19]) was 600 mg/kg/day and the LEL (rat [7]; [20]) was 1800 mg/kg/day. For the same molecule, the LOAEL (rat [7]; [20]) was 1800 mg/kg/day, the NEL (rat [7]; [20]) was 600 mg/kg/day and the NOAEL (rat [7]; [20]) was 600 mg/kg/day. For the same molecule, the LEL (rabbit) was 250 mg/kg/day, the LOAEL (rabbit) was 250 mg/kg/day and the NEL (rabbit) was 125 mg/kg/day. For the same molecule, the NOAEL (rabbit) was 125 mg/kg/day.
